Key:
[1] = tested on: crabgrass(Digitaria ciliaris); experiment: Test Example 6: herbicidal effect of Quizalofop-p-ethyl spray solution with added polyoxyethylene alkyl ethers on crabgrass; format: in vivo; settings: scale 0 to 100; spray solution of 40% suspension concentrates of Quizalofop-p-ethyl alone, 125 mg/a., 3 weeks after sowing, 2.5 l/a., 21 days after spraying
Method: (§1) A biological test was conducted using spray solutions prepared by adding polyoxyethylene alkyl ethers having different HLB values to a herbicide spray solution.
Biological tests were conducted on crabgrass(Digitaria ciliaris) using spray solutions prepared by adding polyoxyethylene alkyl ethers having different HLB values to a spray solution of 40% suspension concentrates of Quizalofop-p-ethyl. A plastic pot having a diameter of 12 cm was filled with soil, and crabgrass seeds were sowed in the soil. The solutions were sprayed on in an amount of 125 mg per are (mg/a.), calculated as pesticidally active ingredient Quizalofop-p-ethyl, 3 weeks after the seeds were sowed. The amount of the solution sprayed was 2.5 liters per are (1/a.) and 125 ppm of the polyoxyethylene alkyl ethers were added to the solution. Herbicidal effects on crabgrass were observed and evaluated 21 days after spraying.

[2] = tested on: velvetleaf (Abutilon theophrasti); experiment: Test Example 5: herbicidal effect of Halosulfuron-methyl spray solution with added polyoxyethylene alkyl ethers on velvetleaf; format: in vivo; settings: scale 0 to 100; spray solution of 75% water dispersible granules of Halosulfuron-methyl alone, 0.1 g/a., five-leaf stage, 2 l/a., 27 days after spraying
Method: as §1
Biological tests were conducted on velvetleaf (Abutilon theophrasti) using spray solutions prepared by adding polyoxyethylene alkyl ethers having different HLB values to a spray solution of 75% water dispersible granules of Halosulfuron-methyl. To confirm a difference in effect between the polyoxyethylene alkyl ethers, the tests were carried out using a lower concentration of Halosulfuron-methyl than usual. A plastic pot having a diameter of 12 cm was filled with soil, and velvetleaf seeds were sowed in the soil. The solutions were sprayed on velvetleaf of five-leaf stage in an amount of 0.1 g per are (g/a.), calculated as pesticidally active ingredient Halosulfuron-methyl. The amount of the solution sprayed was 2 liters per are (l/a.)and 1,000 ppm of a the polyethylene alkyl ethers were added to the solution. Herbicidal effects were observed and evaluated 27 days after spraying.

| Structure (SMILES) | Observation evaluation, herbicidal effect of Quizalofop-p-ethyl on crabgrass, polyoxyethylene alkyl ether not added [1] | Observation evaluation, herbicidal effect of Halosulfuron-methyl on velvetleaf, polyoxyethylene alkyl ether not added [2] |
| --- | --- | --- |
| CCOC(=O)[C@@H](C)Oc1ccc(Oc2cnc3cc(Cl)ccc3n2)cc1 [Quizalofop-p-ethyl, ethyl=(R)-2-[4-(6-chloroquinoxalin-2-yloxy)phenoxy]propionate] | 25 |  |
| COC(=O)c1c(Cl)nn(C)c1S(=O)(=O)NC(=O)Nc1nc(OC)cc(OC)n1 [Halosulfuron-methyl] |  | 40 |

Reference: patent US6664213B1, “Liquid pesticide composition” (Nissan Chemical Industries, Ltd., priority 1999, dated 2003)
